Test results from patent US20050148991A1, “Device for using patient blood as diluent in administering pharmaceuticals” (priority 2002, published 2005).

Assay: early study in humans receiving RSR13 via injection in a peripheral vein
Assay type: in vivo
Excerpt: Therefore, the use of RSR13 and its physiologically acceptable salts in the present methods is contemplated. The preparation and uses for 2-[4-[2-[(3,5-dimethylphenyl)amino]-2-oxoethyl]phenoxy]-2-methyl-propionic acid and its physiologically acceptable salts has been described previously in U.S. Pat. Nos. 5,049,695; 5,122,539; 5,290,803; 5,432,191; 5,525,630; 5,648,375; 5,661,182; 5,677,330; 5,705,521; 5,872,888; and 5,927,283, and pending U.S. patent application Ser. No. 10/082,130, filed Feb. 25, 2002.

Cc1cc(C)cc(NC(=O)Cc2ccc(OC(C)(C)C(=O)O)cc2)c1 [RSR13, 2-[4-[2-[(3,5-dimethylphenyl)amino]-2-oxoethyl]phenoxy]-2-methyl-propionic acid]
pain on injection: some recipients complained of pain near the site of injection and downstream
